Assay results reported in US20230029496A1, “AMINO ACID ALTERNATIVE CURING SYSTEM” (THE TEXAS A&M UNIVERSITY SYSTEM, priority 2019, published 2023).
Values joined by “and” are separate entries in the source; they are usually repeats but may differ in a detail not shown here. Equal entries are not always repeated. “Also recorded” adds a separate entry of the source. Marks after values point to notes of the source that are not given here.

Columns and labels:
[1] = system: nitric oxide synthase system; assay: Residual nitrite equivalency scale, key findings across all species (Example 26)
[2] = pH after immersion, pre- and post-rigor pork semimembranosus muscle (Example 13); assay type: physicochemical
[3] = system: Nitric Oxide Synthase (NOS) system; assay: Residual nitrite in pre-rigor pork semimembranosus muscle immersed in L-arginine (first study); assay type: biochemical
Experimental: Pre-rigor pork Semimembranosus muscle samples were collected from four pre-rigor pork carcasses (n=4) harvested at the Rosenthal Meat Science and Technology Center at Texas A&M University at six separate times over a four day period (N=24). Muscle samples were treated with five concentrations of L-arginine, using water as the control treatment. Samples were either subjected to heat treatment (water bath increasing to 62° C. for 60 min) or left raw/fresh (uncooked). All treated muscle samples were analyzed for residual nitrite, and cooked samples were analyzed for nitrosylhemochromagen levels to determine curing efficiency.
Solutions were prepared according to Wu to stabilize the muscle samples for enclosed reactions within the 50 mL conical tubes. […] The NaCl was used to stabilize any reaction and the NaE was used to accelerate any cure reaction that could occur. The L-arginine was prepared separately so as to be administered in specific concentration once the five grams of meat was added to the reaction tubes by creating dilutions of millimolar concentrations at 0 mM, 2 mM, 4 mM, 8 mM, 16 mM, and 32 mM.
The procedures for determining the following sample reactions followed the procedures outlined by Wu 24 5 g muscle samples were individually placed into 50 mL conical tubes.
Residual nitrite was determined using the modified AOAC Official Method 973.31 (Nitrite Analysis in Cured Meats Procedure) and was verified by Wu with sample (plasma or serum) preparation for amino acid analysis by HPLC and determination of nitrite (UV/VIS Spectrophotometric Method). This procedure was used to determine any residual nitrite found in samples. All samples were tested three weeks after being held in a −30° C. freezer then thawed in a 0° C. cooler.
Procedure: • 1. Weigh 5 g (±0.01) of finely comminuted and thoroughly mixed sample into a 100 ml beaker. • 2. Add approximately 40 ml distilled water and heat to 80° C. Use a glass rod to break up all lumps and mix thoroughly. • 3. Transfer the heated solution to a 500 ml volumetric flask. Quantitatively wash the beaker and rod with successive portions of the hot distilled water, adding all washings to the flask (approximately 300 ml). • 4. Transfer the flask to a steam bath (˜100° C.) and shake occasionally for 2 hour. After cooling to room temperature, bring the volume to 500 ml with distilled water and remix. Filter through two Whatman No. 2 filter papers into flask and mix solution thoroughly (discard the residue). Then transfer 25 ml of the filtrate into a 50 ml volumetric flask then add 2.5 ml sulfanilamide reagent, mix thoroughly. • 5. After setting for 5 min, add 2.5 ml NED reagent, mix. Dilute to volume with distilled water, mix and set for another 15 min to let the color develop. • 6. Transfer a portion of the solution to the cuvette and read absorbance at 540 nm against a blank of 45 ml distilled water+2.5 ml sulfanilamide reagent+2.5 ml NED reagent.
• 1. Pipette 0.5 mL of plasma (or serum) to a 12×75 mm polypropylene tube. Place the tube in ice. • 2. Add 0.5 mL of […] to the tube (the tube remains in ice). • 3. Mix the tube well (using a vortex). • 4. After 2 min, add 0.25 mL of 2 M K2CO3 to the tube (the tube remains in ice). • 5.

[4] = pH after immersion, pre-rigor pork semimembranosus muscle (first study); assay type: physicochemical
[5] = system: NOS system; assay: NO-heme, total heme, nitrosylation and cured color in test tube pork loin sausages (Example 11)
[6] = High (5000 ppm) L-arginine, 8 days post thermal processing
[7] = High (5000 ppm) L-arginine, one day after thermal processing

Compound: N=C(N)NCCC[C@H](N)C(=O)O [L-arginine]
- residual nitrite values compared to sodium nitrite concentrations of 120, 156 and 200 ppm ([1]; L-arginine 1000, 2000 and 3000 ppm, with sodium erythorbate, except poultry at 200 ppm sodium nitrite): comparable
- residual nitrite values compared to lower L-arginine concentrations ([1]; L-arginine 4000 and 5000 ppm, with sodium erythorbate): lower residual nitrite values
- residual nitrite values compared to sodium nitrite treated samples ([1]; no cure accelerator (sodium erythorbate) included): consistently lower; also recorded: lower residual nitrite values
- pH after 2 hours of sample immersion ([2]; 2 mM L-arginine, post rigor cooked): 5.77^a
- pH after 2 hours of sample immersion ([2]; 2 mM L-arginine, post rigor raw): 5.52^a
- pH after 2 hours of sample immersion ([2]; 2 mM L-arginine, pre-rigor cooked): 6.03^a
- pH after 2 hours of sample immersion ([2]; 2 mM L-arginine, pre-rigor raw): 5.94^a
- pH after 2 hours of sample immersion ([2]; 4 mM L-arginine, post rigor cooked): 5.75^a
- pH after 2 hours of sample immersion ([2]; 4 mM L-arginine, post rigor raw): 5.52^a
- pH after 2 hours of sample immersion ([2]; 4 mM L-arginine, pre-rigor cooked): 6.01^a
- pH after 2 hours of sample immersion ([2]; 4 mM L-arginine, pre-rigor raw): 6.04^a
- pH after 2 hours of sample immersion ([2]; 8 mM L-arginine, post rigor cooked): 5.66^a
- pH after 2 hours of sample immersion ([2]; 8 mM L-arginine, post rigor raw): 5.53^a
- pH after 2 hours of sample immersion ([2]; 8 mM L-arginine, pre-rigor cooked): 5.99^a
- pH after 2 hours of sample immersion ([2]; 8 mM L-arginine, pre-rigor raw): 5.93^a
- pH after 2 hours of sample immersion ([2]; 16 mM L-arginine, post rigor cooked): 5.75^a
- pH after 2 hours of sample immersion ([2]; 16 mM L-arginine, post rigor raw): 5.53^a
- pH after 2 hours of sample immersion ([2]; 16 mM L-arginine, pre-rigor cooked): 6.00^a
- pH after 2 hours of sample immersion ([2]; 16 mM L-arginine, pre-rigor raw): 5.91^a
- pH after 2 hours of sample immersion ([2]; 32 mM L-arginine, post rigor cooked): 5.76^a
- pH after 2 hours of sample immersion ([2]; 32 mM L-arginine, post rigor raw): 5.56^a
- pH after 2 hours of sample immersion ([2]; 32 mM L-arginine, pre-rigor cooked): 5.97^a
- pH after 2 hours of sample immersion ([2]; 32 mM L-arginine, pre-rigor raw): 5.93^a
- sample pH after the immersion phase ([2]; range over pre- and post-rigor, raw and cooked, 0-32 mM): 5.51-6.04
- Residual Nitrite ([3]; 2 mM L-arginine, cooked pellet): 10.46 ppm and 10.46^a ppm
- Residual Nitrite ([3]; 2 mM L-arginine, cooked supernatant): 5.81 ppm and 5.81^ab ppm
- Residual Nitrite ([3]; 2 mM L-arginine, raw supernatant, stored 3 weeks at -30° C.): 4.53^b ppm
- Residual Nitrite ([3]; 4 mM L-arginine, cooked pellet): 9.35 ppm and 9.35^a ppm
- Residual Nitrite ([3]; 4 mM L-arginine, cooked supernatant): 8.79 ppm and 8.79^a ppm
- Residual Nitrite ([3]; 4 mM L-arginine, raw supernatant, stored 3 weeks at -30° C.): 8.00 ppm and 8.00^ab ppm
- Residual Nitrite ([3]; 8 mM L-arginine, cooked pellet): 11.22 ppm and 11.22^a ppm
- Residual Nitrite ([3]; 8 mM L-arginine, cooked supernatant): 5.85 ppm and 5.85^ab ppm
- Residual Nitrite ([3]; 8 mM L-arginine, raw supernatant, stored 3 weeks at -30° C.): 9.66 ppm and 9.66^ab ppm
- Residual Nitrite ([3]; 16 mM L-arginine, cooked pellet): 14.06 ppm and 14.06^a ppm
- Residual Nitrite ([3]; 16 mM L-arginine, cooked supernatant): 3.19 ppm and 3.19^ab ppm
- Residual Nitrite ([3]; 16 mM L-arginine, raw supernatant, stored 3 weeks at -30° C.): 9.23 ppm and 9.23^ab ppm
- Residual Nitrite ([3]; 32 mM L-arginine, cooked pellet): 15.69 ppm and 15.69^a ppm
- Residual Nitrite ([3]; 32 mM L-arginine, cooked supernatant): 7.86 ppm and 7.86^ab ppm
- Residual Nitrite ([3]; 32 mM L-arginine, raw supernatant, stored 3 weeks at -30° C.): 14.34 ppm and 14.34^a ppm
- pH after 2 hours of sample immersion ([4]; 2 mM L-arginine, cooked): 5.88^a
- pH after 2 hours of sample immersion ([4]; 2 mM L-arginine, raw): 5.84^a
- pH after 2 hours of sample immersion ([4]; 4 mM L-arginine, cooked): 5.86^a
- pH after 2 hours of sample immersion ([4]; 4 mM L-arginine, raw): 5.85^a
- pH after 2 hours of sample immersion ([4]; 8 mM L-arginine, cooked): 5.87^a
- pH after 2 hours of sample immersion ([4]; 8 mM L-arginine, raw): 5.83^a
- pH after 2 hours of sample immersion ([4]; 16 mM L-arginine, cooked): 5.94^a
- pH after 2 hours of sample immersion ([4]; 16 mM L-arginine, raw): 5.88^a
- pH after 2 hours of sample immersion ([4]; 32 mM L-arginine, cooked): 6.05^a
- pH after 2 hours of sample immersion ([4]; 32 mM L-arginine, raw): 6.01^a
- sample pH after the immersion phase ([4]; range over raw and cooked, 0-32 mM): 5.83-6.05
- NO-Heme [5, 6]: 14.59^a ppm
- Nitrosylation [5, 6]: 38.65^a %
- Total Heme [5, 6]: 37.4^a ppm
- NO-Heme [5, 7]: 13.43^b ppm
- Nitrosylation [5, 7]: 60.58^b %
- Total Heme ([5]; Low (1000 ppm) L-arginine, 8 days post thermal processing): 28.56^b ppm
- Nitrosylation ([5]; Low (1000 ppm) L-arginine, one day after thermal processing): 37.05^a %
- decrease in nitrosylation ([5]; during 8 days of refrigerated vacuum packaged storage): 38-45%
